How the values were obtained:
Drosophila p70S6K = experiment: S6 kinase activity immunoprecipitated with D20 antibody from concentrated Mono Q fractions; type: cell-based, Drosophila melanogaster; settings: cycloheximide-treated S2 cells, D20 immunoprecipitate and Western blot mobility
Method: (§1) Cell extracts are prepared and Drosophila p70^S6K activity is measured as previously described (28) or following immunoprecipitation (Lane, H. A., et al. (1992) EMBO J 11, 1743-1749) with the D20 antibody (2.5 μg).
S2 cells are plated at 5×10^7 cells per 15 cm dish in Schneider's medium supplemented with antibiotic and 10% foetal calf serum. After 24 h, cells are changed to Schneider's medium without serum and after an additional 36 h, 5 plates of cells are treated with 100 μM cycloheximide for two hours with or without pretreatment with […] rapamycin for 15 min. Cell extracts are prepared by dounce homogenisation in Extraction buffer lacking PNPP as described in Reinhard et al., above. […]
To distinguish between these rapamycin sensitive and insensitive S6 kinase activities and to determine whether either represented Drosophila p70^S6K, extracts from cycloheximide-stimulated S2 cells, pretreated with or without rapamycin, are fractionated by Mono Q chromatography. The fractions eluted from the Mono Q column are monitored by A280 and subjected to an in vitro S6 kinase assay. […] The concentrated samples from cells treated with cycloheximide either in the absence or presence of rapamycin pretreatment, are either immunoprecipitated and assayed for S6 kinase activity or analysed on Western blots employing the D20 antibody. […]

[1] = test system: S6 kinase activity in S2 cells; type: cell-based, Drosophila; settings: S2 cells treated with 100 μM cycloheximide for two hours
Method: as §1
S2 cells are plated at 5×10^7 cells per 15 cm dish in Schneider's medium supplemented with antibiotic and 10% foetal calf serum. After 24 h, cells are changed to Schneider's medium without serum and after an additional 36 h, 5 plates of cells are treated with 100 μM cycloheximide for two hours with or without pretreatment with […] rapamycin for 15 min. Cell extracts are prepared by dounce homogenisation in Extraction buffer lacking PNPP as described in Reinhard et al., above. Briefly, each extract is centrifuged for 30 min at 3×105 g, filtered through a 0.2 μm membrane (Millipore), and applied at a flow rate of 0.5ml per min to a 1 ml Mono Q column (Pharmacia) equilibrated in Buffer F (Kozma, S.C., et al. (1989) EMBO J 8, 4125-4132). The column is washed with 10 ml of Buffer F, developed at 0.5 ml per min with a 30 ml gradient from 0-0.5M NaCl in the same buffer, and each fraction is diluted 20-fold and assayed for kinase activity. Factions 16-19 are concentrated on 100 μl of FFQ Sepharose and eluted with 300 μl of 0.5M NaCl in Buffer F. […]

C[C@@H]1C[C@@H]([C@H](O)CC2CC(=O)NC(=O)C2)C(=O)[C@@H](C)C1 [cycloheximide]
activation of Drosophila p70S6K (Drosophila p70S6K): induces the activation
increase of S6 kinase activity over basal levels [1]: 2.2 fold
